Assay results as given in the supplement of paper PMC10307832.

Tests used:
Experiment in all cases: relative viability (nuclei count vs DMSO), 5 days (fraction); higher = more cells survive
Tivantinib + Alpelisib = compound: O=C1NC(=O)[C@@H](c2cn3c4c(cccc24)CCC3)[C@@H]1c1c[nH]c2ccccc12 [Tivantinib] + Cc1nc(NC(=O)N2CCC[C@H]2C(N)=O)sc1-c1ccnc(C(C)(C)C(F)(F)F)c1 [Alpelisib] (partner 2 µM)
Outline: (§1)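 Medians of duplicate plates are given as relative viability. That measure is the nuclei count in treated wells divided by the count in vehicle wells. Counts were taken on 4× images of lung cancer cell lines in 1536-well plates, 5 days after pin-tool dosing the day after seeding with one drug alone or a fixed anchor-drug dose plus five library-drug doses (not always all listed) in √10 steps.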

Tivantinib + Tozasertib = compound: O=C1NC(=O)[C@@H](c2cn3c4c(cccc24)CCC3)[C@@H]1c1c[nH]c2ccccc12 [Tivantinib] + Cc1cc(Nc2cc(N3CCN(C)CC3)nc(Sc3ccc(NC(=O)C4CC4)cc3)n2)n[nH]1 [Tozasertib] (partner 0.1 µM)
Outline: as §1

Crenolanib + Lapatinib = compound: CC1(COc2ccc3c(c2)ncn3-c2ccc3cccc(N4CCC(N)CC4)c3n2)COC1 [Crenolanib] + CS(=O)(=O)CCNCc1ccc(-c2ccc3ncnc(Nc4ccc(OCc5cccc(F)c5)c(Cl)c4)c3c2)o1 [Lapatinib] (partner 2 µM)
Outline: as §1

Tivantinib + Olaparib = compound: O=C1NC(=O)[C@@H](c2cn3c4c(cccc24)CCC3)[C@@H]1c1c[nH]c2ccccc12 [Tivantinib] + O=C(c1cc(Cc2n[nH]c(=O)c3ccccc23)ccc1F)N1CCN(C(=O)C2CC2)CC1 [Olaparib] (partner 8 µM)
Outline: as §1

Row | Cell Line | relative viability (Tivantinib + Alpelisib; first compound 0.01 µM) | relative viability (Tivantinib + Alpelisib; first compound 0.03162 µM) | relative viability (Tivantinib + Alpelisib; first compound 0.1 µM) | relative viability (Tivantinib + Alpelisib; first compound 0.3162 µM) | relative viability (Tivantinib + Tozasertib; first compound 0.01 µM) | relative viability (Tivantinib + Tozasertib; first compound 0.03162 µM) | relative viability (Tivantinib + Tozasertib; first compound 0.1 µM) | relative viability (Tivantinib + Tozasertib; first compound 0.3162 µM) | relative viability (Crenolanib + Lapatinib; first compound 0.01 µM) | relative viability (Crenolanib + Lapatinib; first compound 0.03162 µM) | relative viability (Crenolanib + Lapatinib; first compound 0.1 µM) | relative viability (Crenolanib + Lapatinib; first compound 0.3162 µM) | relative viability (Crenolanib + Lapatinib; first compound 1 µM) | relative viability (Tivantinib + Olaparib; first compound 0.01 µM) | relative viability (Tivantinib + Olaparib; first compound 0.03162 µM) | relative viability (Tivantinib + Olaparib; first compound 0.1 µM) | relative viability (Tivantinib + Olaparib; first compound 0.3162 µM)
1 | HCC-827 | 1.04 | 1.03 | 0.922 | 0.719 | 0.388 | 0.402 | 0.48 | 0.312 | 0.163 | 0.188 | 0.16 | 0.217 | 0.191 | 0.661 | 0.681 | 0.673 | 
2 | HOP-62 | 1.04 |  | 0.648 | 0.923 | 0.383 | 0.352 | 0.385 | 0.377 | 0.869 | 1 | 0.991 | 1.08 | 0.834 | 0.463 | 0.451 | 0.329 | 0.477
3 | IA-LM | 0.878 | 0.653 | 0.853 | 0.815 |  |  |  |  | 0.741 | 0.951 | 0.732 | 0.978 | 1.51 | 0.907 |  | 0.789 | 0.809
4 | LC-2-ad | 0.889 | 0.93 | 0.847 | 0.904 | 0.455 | 0.409 | 0.393 | 0.313 | 1 | 0.922 | 0.982 | 1.05 | 0.992 | 0.684 | 0.685 | 0.692 | 0.706
5 | LCLC-97TM1 | 0.237 | 0.215 | 0.2 | 0.198 | 0.25 | 0.218 | 0.25 | 0.218 | 0.895 | 0.861 | 0.748 | 0.959 | 0.784 | 0.39 | 0.414 | 0.455 | 0.407
6 | LCLC-103H | 0.905 | 0.938 | 0.839 | 0.86 | 0.426 | 0.493 | 0.474 | 0.374 |  |  |  |  |  | 0.713 | 0.802 | 0.722 | 0.778
7 | LK-2 | 1.24 |  | 0.58 | 0.668 | 0.177 |  | 0.199 | 0.191 | 0.942 | 0.812 | 0.935 | 0.938 | 0.851 | 0.903 | 0.639 | 0.73 | 0.687
8 | LOU-NH91 | 0.663 | 0.695 | 0.742 | 0.533 | 0.663 | 0.675 | 0.593 | 0.537 | 0.798 | 0.742 | 0.774 | 0.737 | 0.772 | 0.861 | 0.888 | 0.9 | 0.715
9 | LU99A | 0.477 | 0.477 | 0.453 | 0.369 | 0.261 | 0.276 | 0.266 | 0.291 | 1.08 | 0.988 | 1 | 1.03 | 0.955 | 0.272 | 0.267 | 0.251 | 0.254
10 | LXF-289 | 1.06 | 1.01 | 1.03 | 1.04 | 0.176 | 0.129 | 0.202 | 0.204 | 0.887 | 0.918 | 0.889 | 0.908 | 0.838 | 1.02 | 1.05 | 1.01 | 1.02
11 | NCI-H23 | 0.778 | 0.623 | 0.717 | 0.557 | 0.447 | 0.359 | 0.423 | 0.308 | 1.04 | 1.16 | 0.977 | 1.22 | 0.992 | 0.357 | 0.335 | 0.387 | 0.348
12 | NCI-H322M | 0.699 | 0.891 | 0.719 | 0.546 | 0.483 | 0.458 | 0.502 |  | 0.613 | 0.64 | 0.543 | 0.567 | 0.587 | 0.718 | 0.754 | 0.777 | 
13 | NCI-H358 | 0.911 | 0.78 | 0.827 | 0.365 | 0.109 | 0.0982 | 0.0902 | 0.0802 | 0.468 | 0.461 | 0.44 | 0.45 | 0.312 | 0.633 | 0.63 | 0.505 | 0.379
14 | NCI-H441 | 0.736 | 0.648 |  | 0.76 | 0.587 | 0.655 | 0.552 | 0.474 |  |  |  |  |  | 0.482 | 0.552 | 0.58 | 0.744
15 | NCI-H460 | 0.508 | 0.373 | 0.447 | 0.473 | 0.405 | 0.31 | 0.368 | 0.299 | 0.997 | 1 | 1.04 | 1.46 | 1.01 | 0.412 | 0.429 | 0.399 | 0.39
16 | NCI-H522 |  |  |  |  | 0.636 | 0.463 | 0.536 | 0.491 |  |  |  |  |  | 0.639 | 0.579 | 0.698 | 0.517
17 | NCI-H1299 | 1.09 | 1.01 | 1.01 | 1.02 |  |  |  |  | 0.928 | 1.01 | 0.905 | 0.862 | 0.887 | 0.941 | 0.933 | 1.01 | 0.93
18 | NCI-H1563 | 1.04 | 0.89 | 0.932 | 1.06 |  |  |  |  | 0.818 | 0.97 | 0.937 | 0.998 | 0.849 |  |  |  | 
19 | NCI-H1623 |  |  |  |  | 0.388 | 0.424 | 0.441 |  |  |  |  |  |  |  |  |  | 
20 | NCI-H1648 |  |  |  |  | 0.71 | 0.385 | 0.425 |  |  |  |  |  |  |  | 0.889 | 0.611 | 0.528
21 | NCI-H1650 |  |  |  |  | 0.411 | 0.467 | 0.357 | 0.434 | 0.799 | 0.918 | 0.783 | 0.719 | 0.512 | 0.832 | 0.817 | 0.678 | 0.624
22 | NCI-H1703 | 0.499 | 0.329 | 0.256 | 0.334 |  |  |  |  | 1.14 | 0.713 | 0.262 | 0.257 | 0.189 | 0.524 | 0.444 | 0.527 | 0.309
23 | NCI-H1792 | 0.804 | 0.633 | 0.699 | 0.415 |  |  |  |  | 0.977 | 0.851 | 0.835 | 1.09 | 0.874 | 0.406 |  | 0.406 | 0.3
24 | NCI-H2342 |  |  |  |  | 0.556 | 0.51 | 0.51 | 0.394 |  |  |  |  |  | 0.513 | 0.423 | 0.392 | 0.282
25 | SW 900 |  |  |  |  | 0.642 | 0.577 | 0.636 | 0.576 |  |  |  |  |  | 0.939 | 1.03 | 0.809 | 0.742
